The source of these data is patent publication US20170202939A1, “PERSONALIZED CANCER VACCINES AND METHODS THEREFOR” (Washington University, priority 2014, published 2017).

In experiment [1] the target is T1, HLA-A*02:01 (Homo sapiens, UniProt P04439, D140Y/D185E/D98H/E176V/E277Q/G131W/G231S/I119V/I121R/I166T/I218V/L300P/L318F/N151K/N90K/P208A/P217A/Q86G/Q94H/R138H/R169H/T345S).
T1 construct: purchased Pure Protein, L.L.C
Briefly: fluorescence polarization-based competitive peptide binding assay. The conditions noted are these: fluorescence polarization-based competitive peptide-binding assay; high affinity log(IC50; nM) <3.7; read-out: Experimental Affinity log(IC50) (converted). In general terms: In fluorescence polarisation assays a small probe gives low polarisation when free and higher when bound to something large.

Experiment [2] deals with neoantigen-specific CD8+ T cells. Nature of the experiment: immune monitoring of vaccinated patients, HLA/peptide dextramer (tetramer) assay on cultured PBMC. The following applies: for Immunogenicity: AAS-directed CD8+ T cell response in vaccinated patient; for Spontaneous Immunity: pre-vaccine (naturally-occurring) CD8+ T cell response, immune monitoring assay. The format is in vivo, human. Here is the method: Immunologic monitoring (Examples 1-10). Immunologic analysis to evaluate the kinetics and magnitude of T cell response to gp100 peptides was performed using PBMCs collected weekly (prior to vaccination and until week 21. Fresh PBMCs obtained by Ficoll-Hypaque gradient centrifugation were adjusted to 2×10^6 cells/ml in Stemline media (Sigma-Aldrich) containing 5% human AB-serum, and dispersed at 1 ml/well in 24-well plates. Cultures were set up for the gp100 peptides and the CMV pp65 peptide (positive peptide control). Cultures were pulsed with 40 μg/ml peptide and 50 U/ml IL-2 fed starting at 48 hours and every other day thereafter. On day 12 (peak of response; the inventors' unpublished observation), cultures were harvested, counted, and stained for flow cytometry analysis. To assess the antigen-specific T cell frequency, cells were stained with HLAA*0201/peptide tetramers (Beckman Coulter) for 30 minutes at room temperature, followed by addition of FITC-conjugated CD4, CD14, CD19, and CD56 and allophycocyanin-conjugated CD8 (Invitrogen) for 15 minutes at 4° C. Cells were washed and resuspended in FACS buffer, and 7AAD was added 5 minutes before analysis. Control CMV pp65-specific CD8+ T cells were detected in all CMV-seropositive patients before and after immunization. A negative HLA-A*0201/HIV gag peptide tetramer control was included. 25,000 events in the CD8+ gate were collected using a hierarchical gating strategy that included FSC/SSC and excluded 7AAD+ (dead) cells and CD4+CD14+CD19+CD56+ cells. Data were acquired and analyzed using Flow-Jo software.
To examine the kinetics and magnitude of T cell immunity to AAS peptides upon vaccination, peripheral blood mononuclear cells (PBMC) were collected prior to vaccination and weekly thereafter. The CD8+ T cell response to each peptide was analyzed using a HLA-A*02:01/AAS-peptide dextramer assay after a single round of in vitro stimulation. FIG. 30A illustrates kinetics of immune responses to neoantigens. Time is recorded in weeks (0 indicates pre-vaccination). Culture conditions and staining details are described infra. Antigen-specific numbers were calculated based on dextramer percentage and total live cell yields. Immunologic analysis to evaluate the kinetic and magnitude of T cell response to AAS-encoding and gp100-derived peptides was performed using PBMC collected weekly, starting before DC vaccination (Pre-vaccine in the figures) as described (Carreno, B. M., et al., J. Clin. Invest., 123, 3383-3394, 2013). Briefly, fresh PBMC obtained by Ficoll-Paque PLUS gradient centrifugation were cultured with 40 ug/mL peptide and IL-2 (50 U/mL). On day 10 (peak of response, unpublished data, labeled “Post-Vaccine” in the figures), neoantigen specific T cell frequencies were determined by staining with HLA-A*02:01/peptide dextramers (Immudex), followed by addition of FITC-CD4, -CD14, -CD19 (Invitrogen) and ALEXA® 488-CD56 (BD Pharmigen), APC-CD8 (Invitrogen). Cells were washed, resuspended in FACS buffer containing 7AAD. Twenty five thousand events in the CD8+ gate were collected using a hierarchical gating strategy that included FSC/SSC and excluded 7AAD-positive (dead cells) and CD4/14/19/56-positive cells. PBMC/CD8+ T cells derived from an unrelated HLA-A*02:01 patient were used as negative controls for assessing specificity of HLA-A*02:01/AAS-peptide dextramers (data not shown). Data were acquired and analyzed using Flow-Jo software. […] FIG. 30B illustrates the frequency of neoantigen specific T cells in CD8+ populations isolated directly from PBMC samples and after ex-vivo expansion using autologous DC and artificial antigen presenting cells. For dominant neoantigens TMEM48 F169L, SEC24A P469L and EXOC8 Q656, results are shown for samples obtained before vaccination (Pre-vaccine) and after 3 vaccine doses (Post-vaccine). For remaining neoantigens, results obtained with post-vaccine PBMC samples are shown. […]

For experiment [3], the target named is T2, HLA-A*02:01 (human).
T2 construct: The form of the HLA molecule in the fluorescence polarization assay is not described; also called HLA-A2
Briefly: fluorescence polarization-based competitive peptide-binding assay.

No end group written: not given here.

One may read the IC50 as the concentration needed to halve the response being measured. As for AVIDAYTEI, the half-inhibitory concentration (IC50) at HLA-A*02:01 [1] was 25700 nM. Further, in experiment [2], the Immunogenicity result is “No” and the “Spontaneous Immunity” value was “No”.
CLFPQTLAA: the IC50 at HLA-A*02:01 [1] is 3390 nM. In experiment [2], the Immunogenicity entry is “No” and the “Spontaneous Immunity” value is “No”.
With FVSALCMFL, in experiment [2], the Immunogenicity result is listed as “No” and the “Spontaneous Immunity” value is “No”.
Regarding “G280-9V: HLA-A*0201-restricted gp100 melanoma antigen-derived peptide, positive control for vaccination [reference compound]”, in experiment [2] (post-vaccine PBMC, dextramer assay), the “T cell response upon vaccination” value is “enhanced in patients MEL21 and MEL218 and revealed in patient MEL38”. For the same molecule, the “pre-existing (naturally occurring) T cell immunity” value in experiment [2] (pre-vaccine PBMC samples after in vitro stimulation) was “Two (MEL21 and MEL218) of the three patients had pre-existing immunity”.
For HLYASLSRV, the half-maximal inhibitory concentration (IC50) on HLA-A*02:01 [1] was 1910 nM.
Turning to IIGAGPAEV, the IC50 on HLA-A*02:01 [1] was 6610 nM.
For IMAHCILDL, the IC50 at HLA-A*02:01 [1] was 10500 nM. Further, in experiment [2], the Immunogenicity entry is “No” and the “Spontaneous Immunity” value is “No”.
In the case of KLANPLPYT, the IC50 at HLA-A*02:01 [1] was 5370 nM. For the same molecule, in experiment [2], the Immunogenicity entry was “No” and the “Spontaneous Immunity” value is recorded as “No”.
Consider LLSIIFFPA, for which, at HLA-A*02:01 [1], the 50% inhibitory concentration (IC50) was 7940 nM. Moreover, in experiment [2], the Immunogenicity entry is “No” and the “Spontaneous Immunity” value is recorded as “No”.
For the molecule LLSIVPCTV, the half-inhibitory concentration (IC50) at HLA-A*02:01 [1] is 1230 nM. Further, in experiment [2], the Immunogenicity entry is reported as “No” and the “Spontaneous Immunity” value was “No”.
For the molecule QLDKCSAFV, the IC50 on HLA-A*02:01 [1] was 2290 nM. Also, in experiment [2], the Immunogenicity result was “No” and the “Spontaneous Immunity” value is reported as “No”.
QTIDNIVFL: on HLA-A*02:01 [1], the concentration for half-maximal inhibition (IC50) is 1550 nM. In addition, in experiment [2], the Immunogenicity entry is “No” and the “Spontaneous Immunity” value was “No”.
As for VLLRALPVL, the IC50 at HLA-A*02:01 [1] is 1120 nM. Further, in experiment [2], the Immunogenicity entry was “No” and the “Spontaneous Immunity” value is “No”.
On to YISKCWDYA, for which, on HLA-A*02:01 [1], the IC50 is 19100 nM. In addition, in experiment [2], the Immunogenicity entry is on record as “No” and the “Spontaneous Immunity” value is on record as “No”.

B1: MRPS5 P59L AAS peptide HLYASLSRV, anchor-modified at P9 (MEL218) (peptide)
peptide: HLYASLSRV
For B1, the “log(IC50, nM)” value with HLA-A*02:01 [3] was 3.28 log(IC50, nM).

B2: TMEM48 F169L AAS peptide CLNEYHLFL (MEL21) (peptide)
peptide: CLNEYHLFL
notes: Synthetic nonamer carrying a tumor amino acid substitution
As to B2, in the experiment with HLA-A*02:01 [3], the “log(IC50, nM)” value was 3.09 log(IC50, nM).

B3: MRPS17 P167L AAS peptide VLLRALPVL (MEL218) (peptide)
peptide: VLLRALPVL
notes: as for B2
With B3, in the experiment with HLA-A*02:01 [3], the “log(IC50, nM)” value is 3.05 log(IC50, nM).

B4: HSD17B7 H108Y AAS peptide YISKCWDYA (MEL38) (peptide)
peptide: YISKCWDYA
notes: as for B2
Consider B4, for which the “log(IC50, nM)” value in the experiment with HLA-A*02:01 [3] was 4.28 log(IC50, nM).

B5: AKAP13 Q285K AAS peptide KLMNIQQKL (MEL38) (peptide)
peptide: KLMNIQQKL
notes: as for B2
As for B5, the “log(IC50, nM)” value with HLA-A*02:01 [3] is 3.07 log(IC50, nM).

B6: KDM1B G394E AAS peptide IIGAGPAEV, anchor-modified at P9 (MEL21) (peptide)
peptide: IIGAGPAEV
In the case of B6, the “log(IC50, nM)” value with HLA-A*02:01 [3] is 3.82 log(IC50, nM).

B7: TKT R438W AAS peptide AMFWSVPTV, anchor-modified at P9 (MEL21) (peptide)
peptide: AMFWSVPTV
In the case of B7, the “log(IC50, nM)” value with HLA-A*02:01 [3] was 2.35 log(IC50, nM).

B8: SRP9 I64M AAS peptide IMAHCILDL (MEL218) (peptide)
peptide: IMAHCILDL
notes: as for B2
Regarding B8, the “log(IC50, nM)” value with HLA-A*02:01 [3] is 4.02 log(IC50, nM).

B9: GPX8 L27P AAS peptide LLSIVPCTV (MEL21) (peptide)
peptide: LLSIVPCTV
notes: as for B2
With B9, in the experiment with HLA-A*02:01 [3], the “log(IC50, nM)” value is 3.09 log(IC50, nM).

B10: SEC24A P469L AAS peptide FLYNLLTRV (MEL38) (peptide)
peptide: FLYNLLTRV
notes: as for B2
Consider B10, for which, in the experiment with HLA-A*02:01 [3], the “log(IC50, nM)” value is 2.68 log(IC50, nM).

B11: PRKCDBP S153F AAS peptide CLFPQTLAA (MEL38) (peptide)
peptide: CLFPQTLAA
As for B11, in the experiment with HLA-A*02:01 [3], the “log(IC50, nM)” value is 3.53 log(IC50, nM).

B12: ARFGEF1 F1637L AAS peptide QTIDNIVFL (MEL21) (peptide)
peptide: QTIDNIVFL
notes: as for B2
With B12, in the experiment with HLA-A*02:01 [3], the “log(IC50, nM)” value was 3.19 log(IC50, nM).

B13: SMOX K499N AAS peptide KLANPLPYT (MEL218) (peptide)
peptide: KLANPLPYT
notes: as for B2
Regarding B13, in the experiment with HLA-A*02:01 [3], the “log(IC50, nM)” value is 3.73 log(IC50, nM).

B14: ARFGEF1 R782C AAS peptide FVSALCMFL (MEL38) (peptide)
peptide: FVSALCMFL
On to B14, for which, in the experiment with HLA-A*02:01 [3], the “log(IC50, nM)” value is 3.18 log(IC50, nM).

B15: EXOC8 Q656P AAS peptide IILVAVPHV (MEL218) (peptide)
peptide: IILVAVPHV
In the case of B15, the “log(IC50, nM)” value in the experiment with HLA-A*02:01 [3] is 3.06 log(IC50, nM).

B16: PABPC1 R520Q AAS peptide MLGEQLFPL (MEL218) (peptide)
peptide: MLGEQLFPL
notes: as for B2
As for B16, the “log(IC50, nM)” value with HLA-A*02:01 [3] was 2.35 log(IC50, nM).

B17: UTRN Q1058K AAS peptide QLDKCSAFV (MEL38) (peptide)
peptide: QLDKCSAFV
notes: as for B2
Take B17: the “log(IC50, nM)” value in the experiment with HLA-A*02:01 [3] was 3.36 log(IC50, nM).

B18: LARP7 N515D AAS peptide AVIDAYTEI (MEL218) (peptide)
peptide: AVIDAYTEI
notes: as for B2
For B18, the “log(IC50, nM)” value with HLA-A*02:01 [3] is 4.41 log(IC50, nM).

B19: OR8B3 T190I AAS peptide QLSCISTYV (MEL38) (peptide)
peptide: QLSCISTYV
notes: as for B2
As to B19, the “log(IC50, nM)” value with HLA-A*02:01 [3] was 3.1 log(IC50, nM).

B20: PHKA2 S264F AAS peptide LLSIIFFPA (MEL21) (peptide)
peptide: LLSIIFFPA
notes: as for B2
Regarding B20, the “log(IC50, nM)” value in the experiment with HLA-A*02:01 [3] was 3.9 log(IC50, nM).
